Among the data in patent EP0159254A1, “Derivatives of omega-mercaptopropanamide and their salts, their preparation, their use as medicines and compositions containing them” (ROUSSEL-UCLAF, priority 1984, dated 1985) are IC50 values, retold here.

This test deals with T1, enképhalinase (Rattus norvegicus, UniProt P07861).
T1 construct: L'activité de l'enképhalinase est déterminée dans une fraction membranaire de striatum de rat; from tissue; host or cells: rat striatum, particulate (membrane) fraction
T1 sequence (P07861 1-750): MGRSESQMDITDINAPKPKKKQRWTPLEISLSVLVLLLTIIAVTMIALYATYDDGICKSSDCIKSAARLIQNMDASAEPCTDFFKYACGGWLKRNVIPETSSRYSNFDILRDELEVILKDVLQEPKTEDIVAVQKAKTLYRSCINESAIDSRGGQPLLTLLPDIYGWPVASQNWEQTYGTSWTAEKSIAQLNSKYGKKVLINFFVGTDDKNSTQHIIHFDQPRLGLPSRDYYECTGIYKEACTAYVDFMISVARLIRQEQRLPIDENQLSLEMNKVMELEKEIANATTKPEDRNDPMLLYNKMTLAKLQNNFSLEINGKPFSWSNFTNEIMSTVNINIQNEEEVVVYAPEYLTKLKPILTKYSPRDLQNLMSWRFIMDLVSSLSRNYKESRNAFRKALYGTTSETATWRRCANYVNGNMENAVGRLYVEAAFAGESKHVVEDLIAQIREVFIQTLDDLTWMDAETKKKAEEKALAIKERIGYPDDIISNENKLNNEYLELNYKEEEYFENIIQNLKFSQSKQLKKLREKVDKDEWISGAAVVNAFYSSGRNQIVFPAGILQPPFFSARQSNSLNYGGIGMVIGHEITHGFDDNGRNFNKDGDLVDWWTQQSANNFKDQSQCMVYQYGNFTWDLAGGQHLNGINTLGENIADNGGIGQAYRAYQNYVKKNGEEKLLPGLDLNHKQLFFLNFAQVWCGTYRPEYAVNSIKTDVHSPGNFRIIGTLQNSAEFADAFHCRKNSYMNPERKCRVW
Description: Enkephalinase assay and determination of the effect of inhibitors (hydrolysis of tritiated leucine-enkephalin). The format is biochemical. The settings on record: membrane fraction of rat striatum; 20 nanomoles tritiated leucine-enkephalin, 1 mM puromycin, TRIS buffer, 15 min at 25°C; read-out: Inhibition de l'enképhalinase CI 50. The protocol: 1) Dosage de l'enképhalinase et détermination de l'effet des inhibiteurs.
L'activité de l'enképhalinase est déterminée dans une fraction membranaire de striatum de rat.
Les striatum sont prélevés sur glace et homogénéisés en tampon TRIS 0.05M pH 7,4 (20 fois le volume). Après une première centrifugation à 1000 g, la fraction particulaire est obtenue à la suite de deux centrifugations de 10 minutes à 20 000 g. Le culot est ensuite mis en suspension dans un tampon TRIS et conservé à 4°C. Le dosage des protéines est effectué selon la méthode au bleu de Comassie.
Après une préincubation de 15 minutes à 25°C, une aliquote de protéines est incubée pendant 15 minutes à 25°C en présence de 20 nanomoles de leucine-enképhaline tritiée (sur le premier acide aminé) préalablement purifiée, d'1 mM de puromycine et du produit à tester en tampon TRIS. La réaction d'hydrolyse est stoppée par addition d'acide chlorhydrique 0,2N et l'incubat subit une déprotéinisation par la chaleur (15 minutes à 95°C).
Les métabolites tritiés obtenus par hydrolyse sont séparés de l'enképhaline par chromatographie sur colonne de porapak Q : ils sont élués avec du tampon TRIS tandis que l'enképhaline est retenue sur la colonne et recueillie ensuite en phase éthanolique.
L'activité des différents produits est exprimée en concentrations inhibitrices 50 %.

pIC50: −log10 of the molar value.

`O=C(NCc1ccncc1)C(CS)Cc1ccccc1` (stereo not drawn) [Exemple 24, Chlorhydrate d'α-(mercaptométhyl) N-/(pyridin-4-yl) méthyl/ benzène propanamide]: the pIC50 is 7.10.

For the molecule “Chlorhydrate d'α-(mercaptométhyl) N-/(pyridin-3-yl) méthyl/ benzène propanamide [Exemple 22]”, the pIC50 is 7.10.

On to `O=C(NC1CCCCC1)C(CS)Cc1ccccc1` (stereo not drawn) [Exemple 2, N-cyclohexyl α-(mercaptométhyl) benzène propanamide], for which the pIC50 is 7.00.

Take `O=C(NCc1ccccn1)C(CS)Cc1ccccc1` (stereo not drawn) [Exemple 26, Chlorhydrate d'α-(mercaptométhyl) N-/(Pyridin-2-yl) méthyl/benzène propanamide]: the pIC50 was 7.00.

Turning to `O=C(NCCc1ccccc1)C(CS)Cc1ccccc1` (stereo not drawn) [Exemple 8, α -(mercaptométhyl) N-(2-phényl éthyl) benzène propanamide], the pIC50 is 6.00.
